Earlier results, collected in patent publication US20030211175A1, “Methods and compositions for dietary supplements” (priority 2002, published 2003).

In the case of Chromium picolinate, the “reducing an elevated blood glucose level” value (human) is listed as “moderately effective” and the toxicity (in vivo) is listed as “considerable toxicity”.
